From PubChem BioAssay AID2060500 (Molecular Pharmacology Branch, DTP, NCI, 2025)

Test system: 596521-263-R-J1-PDC complex spheroids, viability % of control
Assay: Anticancer human tumor 596521-263-R-J1-PDC patient-derived soft tissue sarcoma cell line growth inhibition [GQUAD]
Details: for IC50: curve of first compound; for viability, T/C: stronger effect = lower value
Outline: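 Multi-cell-type spheroids of tumor cells with HUVEC and mesenchymal stem cells, treated with drug combinations. Concentrations descend in half-log steps from near clinical Cmax, or from 10 microM where Cmax is unknown; viability read-out.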

[1] = second compound 0.0316 µM, first compound 0.0316 µM
[2] = second compound 0.0316 µM, first compound 0.316 µM
[3] = second compound 0.1 µM, first compound 0.0316 µM
[4] = second compound 0.1 µM, first compound 0.316 µM
[5] = second compound 0.316 µM, first compound 0.0316 µM
[6] = second compound 0.316 µM, first compound 0.316 µM
[7] = second compound 1 µM, first compound 0.0316 µM
[8] = second compound 1 µM, first compound 0.316 µM
[9] = second compound 3.16 µM, first compound 0.0316 µM
[10] = second compound 3.16 µM, first compound 0.316 µM
[11] = second compound 10 µM, first compound 0.0316 µM
[12] = second compound 10 µM, first compound 0.316 µM
[13] = second compound 0.0316 µM, first compound 0.1 µM
[14] = second compound 0.0316 µM, first compound 1 µM
[15] = second compound 0.0316 µM, first compound 3.16 µM
[16] = second compound 0.0316 µM, first compound 10 µM
[17] = second compound 0.1 µM, first compound 0.1 µM
[18] = second compound 0.1 µM, first compound 1 µM
[19] = second compound 0.1 µM, first compound 3.16 µM
[20] = second compound 0.1 µM, first compound 10 µM
[21] = second compound 0.316 µM, first compound 0.1 µM
[22] = second compound 0.316 µM, first compound 1 µM
[23] = second compound 0.316 µM, first compound 3.16 µM
[24] = second compound 0.316 µM, first compound 10 µM
[25] = second compound 1 µM, first compound 0.1 µM
[26] = second compound 1 µM, first compound 1 µM
[27] = second compound 1 µM, first compound 3.16 µM
[28] = second compound 1 µM, first compound 10 µM
[29] = second compound 3.16 µM, first compound 0.1 µM
[30] = second compound 3.16 µM, first compound 1 µM
[31] = second compound 3.16 µM, first compound 3.16 µM
[32] = second compound 3.16 µM, first compound 10 µM
[33] = second compound 10 µM, first compound 0.1 µM
[34] = second compound 10 µM, first compound 1 µM
[35] = second compound 10 µM, first compound 3.16 µM
[36] = second compound 10 µM, first compound 10 µM
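Also: spheroids exposed to drugs for 7 days before viability reading.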
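For viability, T/C in this document: 100% = DMSO vehicle control viability.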

Compound: Cc1[nH]c2ccccc2c1CCNCc1ccc(/C=C/C(=O)NO)cc1 + Cc1[nH]c2ccc(F)cc2c1-c1nc2c3cccnc3c3ncccc3c2[nH]1
- IC50 (second compound 0.0316 µM): > 316 nM
- IC50 (second compound 0.1 µM): > 316 nM
- IC50 (second compound 0.316 µM): > 316 nM
- IC50 (second compound 1 µM): > 316 nM
- IC50 (second compound 3.16 µM): > 316 nM
- IC50 (second compound 10 µM): > 316 nM
- viability, T/C (second compound 0.0316 µM, first compound 0.000999 µM): 108%
- viability, T/C (second compound 0.0316 µM, first compound 0.00316 µM): 97%
- viability, T/C (second compound 0.0316 µM, first compound 0.00999 µM): 100%
- viability, T/C [1]: 82%
- viability, T/C (second compound 0.0316 µM, first compound 0.0999 µM): 96.4%
- viability, T/C [2]: 90.1%
- viability, T/C (second compound 0.1 µM, first compound 0.000999 µM): 99.3%
- viability, T/C (second compound 0.1 µM, first compound 0.00316 µM): 90.6%
- viability, T/C (second compound 0.1 µM, first compound 0.00999 µM): 94.2%
- viability, T/C [3]: 91.3%
- viability, T/C (second compound 0.1 µM, first compound 0.0999 µM): 86.9%
- viability, T/C [4]: 92.7%
- viability, T/C (second compound 0.316 µM, first compound 0.000999 µM): 102%
- viability, T/C (second compound 0.316 µM, first compound 0.00316 µM): 94.7%
- viability, T/C (second compound 0.316 µM, first compound 0.00999 µM): 93.2%
- viability, T/C [5]: 94.3%
- viability, T/C (second compound 0.316 µM, first compound 0.0999 µM): 87%
- viability, T/C [6]: 94.9%
- viability, T/C (second compound 1 µM, first compound 0.000999 µM): 95.9%
- viability, T/C (second compound 1 µM, first compound 0.00316 µM): 99.6%
- viability, T/C (second compound 1 µM, first compound 0.00999 µM): 91.4%
- viability, T/C [7]: 83.9%
- viability, T/C (second compound 1 µM, first compound 0.0999 µM): 90.1%
- viability, T/C [8]: 94.2%
- viability, T/C (second compound 3.16 µM, first compound 0.000999 µM): 82.6%
- viability, T/C (second compound 3.16 µM, first compound 0.00316 µM): 82.2%
- viability, T/C (second compound 3.16 µM, first compound 0.00999 µM): 91%
- viability, T/C [9]: 90.1%
- viability, T/C (second compound 3.16 µM, first compound 0.0999 µM): 84.1%
- viability, T/C [10]: 88.8%
- viability, T/C (second compound 10 µM, first compound 0.000999 µM): 81.2%
- viability, T/C (second compound 10 µM, first compound 0.00316 µM): 67.2%
- viability, T/C (second compound 10 µM, first compound 0.00999 µM): 85%
- viability, T/C [11]: 75.5%
- viability, T/C (second compound 10 µM, first compound 0.0999 µM): 76.4%
- viability, T/C [12]: 72%

Compound: Nc1ccn(C2OC(CO)C(O)C2(F)F)c(=O)n1 (stereo not drawn) + Cc1[nH]c2ccc(F)cc2c1-c1nc2c3cccnc3c3ncccc3c2[nH]1
- IC50 (second compound 0.0316 µM): 34.7 nM
- IC50 (second compound 0.1 µM): 58.1 nM
- IC50 (second compound 0.316 µM): < 31.6 nM
- IC50 (second compound 1 µM): < 31.6 nM
- IC50 (second compound 3.16 µM): 125 nM
- IC50 (second compound 10 µM): < 31.6 nM
- viability, T/C [1]: 54.6%
- viability, T/C [13]: 45.5%
- viability, T/C [2]: 38.1%
- viability, T/C [14]: 38.7%
- viability, T/C [15]: 42.6%
- viability, T/C [16]: 32.9%
- viability, T/C [3]: 57%
- viability, T/C [17]: 47.2%
- viability, T/C [4]: 38%
- viability, T/C [18]: 47.2%
- viability, T/C [19]: 39.2%
- viability, T/C [20]: 41.5%
- viability, T/C [5]: 57%
- viability, T/C [21]: 39%
- viability, T/C [6]: 36.4%
- viability, T/C [22]: 44.2%
- viability, T/C [23]: 45.4%
- viability, T/C [24]: 41.1%
- viability, T/C [7]: 53.3%
- viability, T/C [25]: 38.3%
- viability, T/C [8]: 43.6%
- viability, T/C [26]: 39.3%
- viability, T/C [27]: 40.8%
- viability, T/C [28]: 37.9%
- viability, T/C [9]: 60.7%
- viability, T/C [29]: 49.2%
- viability, T/C [10]: 43%
- viability, T/C [30]: 42%
- viability, T/C [31]: 42.7%
- viability, T/C [32]: 30.7%
- viability, T/C [11]: 56.7%
- viability, T/C [33]: 37.3%
- viability, T/C [12]: 38.8%
- viability, T/C [34]: 32.7%
- viability, T/C [35]: 38.2%
- viability, T/C [36]: 36.3%

Compound: O=C(NO)c1cnc(N2CCN(S(=O)(=O)c3ccc4ccccc4c3)CC2)nc1 + Cc1[nH]c2ccc(F)cc2c1-c1nc2c3cccnc3c3ncccc3c2[nH]1
- IC50 (second compound 0.0316 µM): < 31.6 nM
- IC50 (second compound 0.1 µM): < 31.6 nM
- IC50 (second compound 0.316 µM): < 31.6 nM
- IC50 (second compound 1 µM): < 31.6 nM
- IC50 (second compound 3.16 µM): < 31.6 nM
- IC50 (second compound 10 µM): < 31.6 nM
- viability, T/C [1]: 37.6%
- viability, T/C [13]: 28.2%
- viability, T/C [2]: 30.4%
- viability, T/C [14]: 28.5%
- viability, T/C [15]: 27.2%
- viability, T/C [16]: 30.4%
- viability, T/C [3]: 39.1%
- viability, T/C [17]: 25.8%
- viability, T/C [4]: 25.8%
- viability, T/C [18]: 22%
- viability, T/C [19]: 29.8%
- viability, T/C [20]: 28%
- viability, T/C [5]: 38.3%
- viability, T/C [21]: 29.6%
- viability, T/C [6]: 29.6%
- viability, T/C [22]: 27%
- viability, T/C [23]: 26.9%
- viability, T/C [24]: 25.5%
- viability, T/C [7]: 39.1%
- viability, T/C [25]: 30.3%
- viability, T/C [8]: 29.2%
- viability, T/C [26]: 25.8%
- viability, T/C [27]: 27.6%
- viability, T/C [28]: 29.3%
- viability, T/C [9]: 39.5%
- viability, T/C [29]: 34.5%
- viability, T/C [10]: 29.7%
- viability, T/C [30]: 27.1%
- viability, T/C [31]: 26.1%
- viability, T/C [32]: 27.7%
- viability, T/C [11]: 44.2%
- viability, T/C [33]: 31.5%
- viability, T/C [12]: 29.5%
- viability, T/C [34]: 28.9%
- viability, T/C [35]: 29.6%
- viability, T/C [36]: 29.8%

Compound: O=c1[nH]cc(F)c(=O)[nH]1 + Cc1[nH]c2ccc(F)cc2c1-c1nc2c3cccnc3c3ncccc3c2[nH]1
- IC50 (second compound 0.0316 µM): > 10000 nM
- IC50 (second compound 0.1 µM): > 10000 nM
- IC50 (second compound 0.316 µM): > 10000 nM
- IC50 (second compound 1 µM): > 10000 nM
- IC50 (second compound 3.16 µM): > 10000 nM
- IC50 (second compound 10 µM): > 10000 nM
- viability, T/C [1]: 98.4%
- viability, T/C [13]: 105%
- viability, T/C [2]: 100%
- viability, T/C [14]: 101%
- viability, T/C [15]: 101%
- viability, T/C [16]: 98.3%
- viability, T/C [3]: 100%
- viability, T/C [17]: 101%
- viability, T/C [4]: 101%
- viability, T/C [18]: 105%
- viability, T/C [19]: 94.9%
- viability, T/C [20]: 95.1%
- viability, T/C [5]: 90.8%
- viability, T/C [21]: 104%
- viability, T/C [6]: 106%
- viability, T/C [22]: 113%
- viability, T/C [23]: 118%
- viability, T/C [24]: 81.8%
- viability, T/C [7]: 100%
- viability, T/C [25]: 96.6%
- viability, T/C [8]: 100%
- viability, T/C [26]: 88.9%
- viability, T/C [27]: 93.9%
- viability, T/C [28]: 86.6%
- viability, T/C [9]: 96%
- viability, T/C [29]: 95.4%
- viability, T/C [10]: 88.5%
- viability, T/C [30]: 86.7%
- viability, T/C [31]: 89.1%
- viability, T/C [32]: 82.4%
- viability, T/C [11]: 63.3%
- viability, T/C [33]: 70.6%
- viability, T/C [12]: 80.7%
- viability, T/C [34]: 77.5%
- viability, T/C [35]: 76.4%
- viability, T/C [36]: 72.4%
